Measurements published in PubChem BioAssay (NCI).
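Dose response: 5 concentrations. Exposure: 48 h. Format: 96-well plates. Endpoint: linear interpolation; highest concentration if not reached. GI50 marks 50% less growth. TGI is the concentration that stops growth completely.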

Experiments:
Test in all cases: NCI-60 cell line screen, 48 h
NCI-H460 lung = test system: NCI-H460 lung
SK-MEL-2 melanoma = test system: SK-MEL-2 melanoma
SK-OV-3 ovarian = test system: SK-OV-3 ovarian
DU-145 prostate = test system: DU-145 prostate
SR leukemia = test system: SR leukemia
HCC-2998 colon = test system: HCC-2998 colon
ACHN renal = test system: ACHN renal
NCI/ADR-RES ovarian = test system: NCI/ADR-RES ovarian
IGROV1 ovarian = test system: IGROV1 ovarian
RPMI-8226 leukemia = test system: RPMI-8226 leukemia
HL-60(TB) leukemia = test system: HL-60(TB) leukemia
SW-620 colon = test system: SW-620 colon
COLO 205 colon = test system: COLO 205 colon
SF-295 CNS = test system: SF-295 CNS
HT29 colon = test system: HT29 colon
BT-549 breast = test system: BT-549 breast
MDA-MB-231 breast = test system: MDA-MB-231 breast
OVCAR-4 ovarian = test system: OVCAR-4 ovarian
EKVX NSCLC = test system: EKVX NSCLC
786-0 renal = test system: 786-0 renal
SF-268 CNS = test system: SF-268 CNS
MCF7 breast = test system: MCF7 breast
SN12C renal = test system: SN12C renal
KM12 colon = test system: KM12 colon
OVCAR-5 ovarian = test system: OVCAR-5 ovarian
CAKI-1 renal = test system: CAKI-1 renal
HOP-92 NSCLC = test system: HOP-92 NSCLC
UACC-257 melanoma = test system: UACC-257 melanoma
LOX IMVI melanoma = test system: LOX IMVI melanoma
A549 NSCLC = test system: A549 NSCLC
SNB-75 CNS = test system: SNB-75 CNS
M14 melanoma = test system: M14 melanoma
OVCAR-3 ovarian = test system: OVCAR-3 ovarian
A498 renal = test system: A498 renal
HCT-15 colon = test system: HCT-15 colon
HCT-116 colon = test system: HCT-116 colon
U251 CNS = test system: U251 CNS
MDA-MB-435 = test system: MDA-MB-435
NCI-H226 lung = test system: NCI-H226 lung
UACC-62 melanoma = test system: UACC-62 melanoma
CCRF-CEM leukemia = test system: CCRF-CEM leukemia
T-47D breast = test system: T-47D breast
RXF 393 renal = test system: RXF 393 renal
K-562 leukemia = test system: K-562 leukemia
UO-31 renal = test system: UO-31 renal
MALME-3M melanoma = test system: MALME-3M melanoma
SK-MEL-5 melanoma = test system: SK-MEL-5 melanoma
SF-539 CNS = test system: SF-539 CNS
SK-MEL-28 melanoma = test system: SK-MEL-28 melanoma
HS 578T breast = test system: HS 578T breast
TK-10 renal = test system: TK-10 renal
MOLT-4 leukemia = test system: MOLT-4 leukemia
NCI-H522 lung = test system: NCI-H522 lung
SNB-19 CNS = test system: SNB-19 CNS
NCI-H23 lung = test system: NCI-H23 lung
PC-3 prostate = test system: PC-3 prostate
HOP-62 NSCLC = test system: HOP-62 NSCLC
OVCAR-8 ovarian = test system: OVCAR-8 ovarian

## Nc1ncc(-c2ccc3ncnc(N4CCc5cc(F)c(Cl)cc54)c3c2)cc1CO
NCI-H460 lung
  GI50: 413 nM
  TGI: 3560 nM
SK-MEL-2 melanoma
  GI50: 1090 nM
  TGI: 2890 nM
SK-OV-3 ovarian
  GI50: 451 nM
  TGI: 2820 nM
DU-145 prostate
  GI50: 619 nM
  TGI: > 41800 nM
SR leukemia
  GI50: 475 nM
  TGI: 4660 nM
HCC-2998 colon
  GI50: 1200 nM
  TGI: 5120 nM
ACHN renal
  GI50: 365 nM
  TGI: 20500 nM
NCI/ADR-RES ovarian
  GI50: 1660 nM
  TGI: 9100 nM
IGROV1 ovarian
  GI50: 178 nM
  TGI: 724 nM
RPMI-8226 leukemia
  GI50: 395 nM
  TGI: 3720 nM
HL-60(TB) leukemia
  GI50: 1070 nM
  TGI: 4500 nM
SW-620 colon
  GI50: 1640 nM
  TGI: 9480 nM
COLO 205 colon
  GI50: 1170 nM
  TGI: 2820 nM
SF-295 CNS
  GI50: 453 nM
  TGI: 3170 nM
HT29 colon
  GI50: 950 nM
  TGI: 10200 nM
BT-549 breast
  GI50: 321 nM
  TGI: 2050 nM
MDA-MB-231 breast
  GI50: 697 nM
  TGI: 6540 nM
OVCAR-4 ovarian
  GI50: 615 nM
  TGI: 5230 nM
EKVX NSCLC
  GI50: 259 nM
  TGI: 1930 nM
786-0 renal
  GI50: 474 nM
  TGI: 5000 nM
SF-268 CNS
  GI50: 663 nM
  TGI: 7890 nM
MCF7 breast
  GI50: 210 nM
  TGI: 2520 nM
SN12C renal
  GI50: 435 nM
  TGI: 11200 nM
KM12 colon
  GI50: 1650 nM
  TGI: 8230 nM
OVCAR-5 ovarian
  GI50: 422 nM
  TGI: 12100 nM
CAKI-1 renal
  GI50: 282 nM
  TGI: 3760 nM
HOP-92 NSCLC
  GI50: 115 nM
  TGI: 1530 nM
UACC-257 melanoma
  GI50: 644 nM
  TGI: 4310 nM
LOX IMVI melanoma
  GI50: 747 nM
  TGI: 3940 nM
A549 NSCLC
  GI50: 522 nM
  TGI: 3210 nM
SNB-75 CNS
  GI50: 50.6 nM
  TGI: 1110 nM
M14 melanoma
  GI50: 543 nM
  TGI: 3900 nM
OVCAR-3 ovarian
  GI50: 468 nM
  TGI: 4840 nM
A498 renal
  GI50: 110 nM
  TGI: 611 nM
HCT-15 colon
  GI50: 798 nM
  TGI: 5250 nM
HCT-116 colon
  GI50: 1260 nM
  TGI: 5020 nM
U251 CNS
  GI50: 1430 nM
  TGI: 7950 nM
MDA-MB-435
  GI50: 418 nM
  TGI: 1990 nM
NCI-H226 lung
  GI50: 570 nM
  TGI: 9140 nM
UACC-62 melanoma
  GI50: 266 nM
  TGI: 1610 nM
CCRF-CEM leukemia
  GI50: 1580 nM
  TGI: 11200 nM
T-47D breast
  GI50: 169 nM
  TGI: 936 nM
RXF 393 renal
  GI50: 318 nM
  TGI: 1170 nM
K-562 leukemia
  GI50: 887 nM
  TGI: > 23200 nM
UO-31 renal
  GI50: 154 nM
  TGI: 5000 nM
MALME-3M melanoma
  GI50: 186 nM
  TGI: 1420 nM
SK-MEL-5 melanoma
  GI50: 838 nM
  TGI: 2200 nM
SF-539 CNS
  GI50: 1270 nM
  TGI: 4450 nM
SK-MEL-28 melanoma
  GI50: 393 nM
  TGI: 5210 nM
HS 578T breast
  GI50: 404 nM
  TGI: 2940 nM
TK-10 renal
  GI50: 231 nM
  TGI: 2030 nM
MOLT-4 leukemia
  GI50: 525 nM
  TGI: 4720 nM
NCI-H522 lung
  GI50: 419 nM
  TGI: 3020 nM
SNB-19 CNS
  GI50: 1430 nM
  TGI: 12900 nM
NCI-H23 lung
  GI50: 803 nM
  TGI: 3720 nM
PC-3 prostate
  GI50: 343 nM
  TGI: 25100 nM
HOP-62 NSCLC
  GI50: 776 nM
  TGI: 5120 nM
OVCAR-8 ovarian
  GI50: 883 nM
  TGI: 10400 nM
